Data set [1] concerns SARS-CoV-2. In words: microbe, parasite or virus in culture. It is filed as cell-based. As to conditions: Severe acute respiratory syndrome coronavirus 2, 48 h; read-out: SARS-CoV-2 (2-day) EC50.
Data set [2] can be described thus: A549 cytotoxicity analysis (CellTiter-Glo). It is filed as cell-based. As to conditions: human. As to the method: The cytotoxicity of compounds was determined in A549 cells in the following manner. Compounds (200 nL) were spotted onto 384-well Grenier plates prior to seeding 5000 A549 cells/well in a volume of 40 μL culture medium. The plates were incubated at 37° C. for 48 hours with 5% CO2. On day 2, 40 μL of CellTiter-Glo (Promega) was added and mixed 5 times. Plates were read for luminescence on an Envision (PerkinElmer) and the CC50 (compound concentration for reducing 50% of luminescence signal as a measure of cell viability) were calculated using a nonlinear regression model (four parameters).
(In ATP-based viability assays light output follows the ATP content of the culture.)

In data set [3] the test system is 2019-nCoV. In words: Intravenous Compound 32 against 2019-nCoV in rhesus monkeys. Format: in vivo. As to conditions: 10 mg/kg IV once daily, vs vehicle.
Setting [4] is: A549 cells, 48 hours, CellTiter-Glo, read-out: A549 Cytotoxicity (2-day) CC50.

Read-outs that look alike come from different tables or passages of the source.

One may read the EC50 as the concentration that produces a half-maximal response. A word on the CC50: it is the concentration giving 50% cytotoxicity. With `CCC(CC)COC(=O)[C@H](C)N[P@@](=O)(OC[C@H]1O[C@@](C#N)(c2ccc3c(N)ncnn23)[C@H](O)[C@@H]1O)Oc1ccccc1`, the EC50 in data set [1] amounted to 272 ± 75 nM. Also, the CC50 at 48 h in data set [2] (setting [4]) was found to be 17700 nM.
For the molecule `N#C[C@@]1(c2ccc3c(N)ncnn23)O[C@H](CO)[C@@H](O)[C@H]1O`, the EC50 in data set [1] was 869 ± 289 nM. Moreover, in data set [2], the CC50 at 48 h is > 50000 nM.
For `CCC(CC)COC(=O)[C@H](C)N[P@](=O)(OC[C@H]1O[C@@](C#N)(c2ccc3c(N)ncnn23)[C@H](O)[C@@H]1O)Oc1ccccc1` [drawing 141], the EC50 in data set [1] amounted to 135 ± 20 nM. Besides, the CC50 at 48 h in data set [2] (setting [4]) is > 25200 nM.
For `CCC(CC)COC(=O)[C@H](C)N[P@](=O)(OC[C@H]1O[C@@](C#N)(c2ccc3c(N)ncnn23)[C@H](O)[C@@H]1O)Oc1ccccc1` [Compound 32, (S)-2-ethylbutyl 2-(((S)-(((2R,3S,4R,5R)-5-(4-aminopyrrolo[2,1-f][1,2,4]triazin-7-yl)-5-cyano-3,4-dihydroxytetrahydrofuran-2-yl)methoxy)(phenoxy)phosphoryl)amino)propanoate], in data set [3], the cumulative clinical scores entry is on record as “notably higher in vehicle-treated animals” and the disease symptoms entry is “less pronounced”.

Source of the values: patent publication US11660307B2, “Methods for treating SARS CoV-2 infections” (Gilead Sciences, Inc., priority 2020, dated 2023).
